As usually defined, the IC50 is the concentration that inhibits the measured activity by half.

This passage reports IC50 results from patent publication US8071625B2, “Certain chemical entities, compositions, and methods” (Cytokinetics, Inc., priority 2006, dated 2011).

For this test, the target named is T1, crosslinked smooth muscle actomyosin (chicken gizzard smooth muscle myosin subfragment-1 crosslinked to cardiac or skeletal actin) (Gallus gallus, UniProt P10587).
T1 construct: chicken gizzard smooth muscle myosin subfragment-1; from tissue; host or cells: chicken gizzard
In words: Lead optimization pyruvate kinase/horseradish peroxidase/pyruvate oxidase-coupled ATPase assay (compound dose response). Format: biochemical. Particulars: read-out: IC50 Arithmetic Mean. The method in brief:
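IC50 is the midpoint of a 4-parameter dose–response fit of Amplex Red fluorescence (480/615 nm). Buffer was 12 mM potassium PIPES pH 7.00 at 22 °C with 100 mM KCl, 2 mM MgCl2, 0.15 mM ATP and 2 mM phosphate, with PK/pyruvate oxidase/HRP coupling. Enzyme: smooth muscle myosin S1 crosslinked to cardiac or skeletal actin, dosed empirically by activity.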

`CCc1ccc(NC(=O)OC(C)CN(C)C(=O)NCc2ccccc2Cl)cc1` (stereo not drawn) [[2-({[(2-chlorophenyl)methyl]amino}-N-methylcarbonylamino)-isopropoxy]-N-(4-ethylphenyl)carboxamide]: the concentration for half-maximal inhibition (IC50) was determined as 8520 nM.

`CCc1ccc(NC(=O)OCC2(C(=O)NCc3cccc(Cl)c3Cl)CCN(C(=O)CN)CC2)cc1` [[(1-(2-aminoacetyl)-4-{N-[(2,3-dichlorophenyl)methyl]carbamoyl}(4-piperidyl))methoxy]-N-(4-ethylphenyl)carboxamide]: the IC50 was 88 nM. Consider `NCC(=O)N1CCC(COC(=O)Nc2ccc(C(F)(F)F)cc2)(C(=O)NCc2cccc(Cl)c2Cl)CC1` [[(1-(2-aminoacetyl)-4-{N-[(2,3-dichlorophenyl)methyl]carbamoyl}(4-piperidyl))methoxy]-N-[4-(trifluoromethyl)phenyl]carboxamide], for which the IC50 is 284 nM. Regarding `CCc1ccc(NC(=O)OCC2(C(=O)NCc3cccc(F)c3F)CCN(C(=O)CN)CC2)cc1` [[(1-(2-aminoacetyl)-4-{N-[(2,3-difluorophenyl)methyl]carbamoyl}(4-piperidyl))methoxy]-N-(4-ethylphenyl)carboxamide], the IC50 worked out at 164 nM.

For `CCc1ccc(NC(=O)OCC2(C(=O)NCc3ccc(Cl)cc3Cl)CCN(C(=O)CN)CC2)cc1` [[(1-(2-aminoacetyl)-4-{N-[(2,4-dichlorophenyl)methyl]carbamoyl}(4-piperidyl))methoxy]-N-(4-ethylphenyl)carboxamide], the IC50 was determined as 197 nM. As to `CCc1ccc(NC(=O)OCC2(C(=O)NCc3ccc(C)cc3C)CCN(C(=O)CN)CC2)cc1` [[(1-(2-aminoacetyl)-4-{N-[(2,4-dimethylphenyl)methyl]carbamoyl}(4-piperidyl))methoxy]-N-(4-ethylphenyl)carboxamide], the IC50 is 576 nM. As for `CCc1ccc(NC(=O)OCC2(C(=O)NCc3ccccc3Br)CCN(C(=O)CN)CC2)cc1` [[(1-(2-aminoacetyl)-4-{N-[(2-bromophenyl)methyl]carbamoyl}(4-piperidyl))methoxy]-N-(4-ethylphenyl)carboxamide], the figure is 146 nM; as for `CCc1ccc(NC(=O)OCC2(C(=O)NCc3ccc(F)cc3Cl)CCN(C(=O)CN)CC2)cc1` [[(1-(2-aminoacetyl)-4-{N-[(2-chloro-4-fluorophenyl)methyl]carbamoyl}(4-piperidyl))methoxy]-N-(4-ethylphenyl)carboxamide], 158 nM. As for `CCc1ccc(NC(=O)OCC2(C(=O)NCc3ccccc3CC)CCN(C(=O)CN)CC2)cc1` [[(1-(2-aminoacetyl)-4-{N-[(2-ethylphenyl)methyl]carbamoyl}(4-piperidyl))methoxy]-N-(4-ethylphenyl)carboxamide], the figure is 951 nM; as for `CCc1ccc(NC(=O)OCC2(C(=O)NCc3cccnc3C)CCN(C(=O)CN)CC2)cc1` [[(1-(2-aminoacetyl)-4-{N-[(2-methyl(3-pyridyl))methyl]carbamoyl}(4-piperidyl))methoxy]-N-(4-ethylphenyl)carboxamide], 9440 nM. In the case of `CCc1ccc(NC(=O)OCC2(C(=O)NCc3cccc(Cl)c3F)CCN(C(=O)CN)CC2)cc1` [[(1-(2-aminoacetyl)-4-{N-[(3-chloro-2-fluorophenyl)methyl]carbamoyl}(4-piperidyl))methoxy]-N-(4-ethylphenyl)carboxamide] it was 99 nM. Turning to `NCC(=O)N1CCC(COC(=O)Nc2ccc(C(F)(F)F)cc2)(C(=O)NCc2cccc(Cl)c2F)CC1` [[(1-(2-aminoacetyl)-4-{N-[(3-chloro-2-fluorophenyl)methyl]carbamoyl}(4-piperidyl))methoxy]-N-[4-(trifluoromethyl)phenyl]carboxamide], the IC50 was 370 nM.

In the case of `CCc1ccc(NC(=O)OCC2(C(=O)NCc3cccc(Cl)c3C)CCN(C(=O)CN)CC2)cc1` [[(1-(2-aminoacetyl)-4-{N-[(3-chloro-2-methylphenyl)methyl]carbamoyl}(4-piperidyl))methoxy]-N-(4-ethylphenyl)carboxamide], the IC50 was 83 nM.

With `Cc1c(Cl)cccc1CNC(=O)C1(COC(=O)Nc2ccc(C(F)(F)F)cc2)CCN(C(=O)CN)CC1` [[(1-(2-aminoacetyl)-4-{N-[(3-chloro-2-methylphenyl)methyl]carbamoyl}(4-piperidyl))methoxy]-N-[4-(trifluoromethyl)phenyl]carboxamide], the IC50 was 179 nM. As for `CCc1ccc(NC(=O)OCC2(C(=O)NCc3cccc(Cl)c3)CCN(C(=O)CN)CC2)cc1` [[(1-(2-aminoacetyl)-4-{N-[(3-chlorophenyl)methyl]carbamoyl}(4-piperidyl))methoxy]-N-(4-ethylphenyl)carboxamide], the figure is 729 nM; as for `CCc1ccc(NC(=O)OCC2(C(=O)NCc3cccc(F)c3C)CCN(C(=O)CN)CC2)cc1` [[(1-(2-aminoacetyl)-4-{N-[(3-fluoro-2-methylphenyl)methyl]carbamoyl}(4-piperidyl))methoxy]-N-(4-ethylphenyl)carboxamide], 81 nM. As for `Cc1c(F)cccc1CNC(=O)C1(COC(=O)Nc2ccc(C(F)(F)F)cc2)CCN(C(=O)CN)CC1` [[(1-(2-aminoacetyl)-4-{N-[(3-fluoro-2-methylphenyl)methyl]carbamoyl}(4-piperidyl))methoxy]-N-[4-(trifluoromethyl)phenyl]carboxamide], the figure is 412 nM; as for `CCc1ccc(NC(=O)OCC2(C(=O)NCc3cccc(F)c3)CCN(C(=O)CN)CC2)cc1` [[(1-(2-aminoacetyl)-4-{N-[(3-fluorophenyl)methyl]carbamoyl}(4-piperidyl))methoxy]-N-(4-ethylphenyl)carboxamide], 1030 nM. Turning to `CCc1ccc(NC(=O)OCC2(C(=O)NCc3ncccc3C)CCN(C(=O)CN)CC2)cc1` [[(1-(2-aminoacetyl)-4-{N-[(3-methyl(2-pyridyl))methyl]carbamoyl}(4-piperidyl))methoxy]-N-(4-ethylphenyl)carboxamide], the IC50 was 2980 nM. On to `CCc1ccc(NC(=O)OCC2(C(=O)NCc3ccc(Cl)cc3F)CCN(C(=O)CN)CC2)cc1` [[(1-(2-aminoacetyl)-4-{N-[(4-chloro-2-fluorophenyl)methyl]carbamoyl}(4-piperidyl))methoxy]-N-(4-ethylphenyl)carboxamide], for which the IC50 turned out to be 262 nM. As for `CCc1ccc(NC(=O)OCC2(C(=O)NCc3ccc(Cl)cc3C)CCN(C(=O)CN)CC2)cc1` [[(1-(2-aminoacetyl)-4-{N-[(4-chloro-2-methylphenyl)methyl]carbamoyl}(4-piperidyl))methoxy]-N-(4-ethylphenyl)carboxamide], the figure is 145 nM; as for `CCc1ccc(NC(=O)OCC2(C(=O)NCc3ccc(Cl)cc3)CCN(C(=O)CN)CC2)cc1` [[(1-(2-aminoacetyl)-4-{N-[(4-chlorophenyl)methyl]carbamoyl}(4-piperidyl))methoxy]-N-(4-ethylphenyl)carboxamide], 1280 nM; as for `CCc1ccc(NC(=O)OCC2(C(=O)NCc3ccc(F)cc3)CCN(C(=O)CN)CC2)cc1` [[(1-(2-aminoacetyl)-4-{N-[(4-fluorophenyl)methyl]carbamoyl}(4-piperidyl))methoxy]-N-(4-ethylphenyl)carboxamide], 1100 nM.

As to `CCc1ccc(NC(=O)OCC2(C(=O)NCc3ncc[nH]3)CCN(C(=O)CNC(=O)OC(C)(C)C)CC2)cc1` [[(1-{2-[(tert-butoxy)carbonylamino]acetyl}-4-[N-(imidazol-2-ylmethyl)carbamoyl](4-piperidyl))methoxy]-N-(4-ethylphenyl)carboxamide], the IC50 was determined as 1770 nM.

As for `CCc1ccc(NC(=O)OCC2(C(=O)NCc3ccc(F)cc3Cl)CCN(C(=O)CNC(=O)OC(C)(C)C)CC2)cc1` [[(1-{2-[(tert-butoxy)carbonylamino]acetyl}-4-{N-[(2-chloro-4-fluorophenyl)methyl]carbamoyl}(4-piperidyl))methoxy]-N-(4-ethylphenyl)carboxamide], the IC50 is 1080 nM. For the compound `CC(C)(C)OC(=O)NCC(=O)N1CCC(COC(=O)Nc2ccc(C(F)(F)F)cc2)(C(=O)NCc2cccc(Cl)c2F)CC1` [[(1-{2-[(tert-butoxy)carbonylamino]acetyl}-4-{N-[(3-chloro-2-fluorophenyl)methyl]carbamoyl}(4-piperidyl))methoxy]-N-[4-(trifluoromethyl)phenyl]carboxamide], the IC50 amounted to 6560 nM. In the case of `Cc1c(Cl)cccc1CNC(=O)C1(COC(=O)Nc2ccc(C(F)(F)F)cc2)CCN(C(=O)CNC(=O)OC(C)(C)C)CC1` [[(1-{2-[(tert-butoxy)carbonylamino]acetyl}-4-{N-[(3-chloro-2-methylphenyl)methyl]carbamoyl}(4-piperidyl))methoxy]-N-[4-(trifluoromethyl)phenyl]carboxamide] it was 5640 nM; in that of `Cc1c(F)cccc1CNC(=O)C1(COC(=O)Nc2ccc(C(F)(F)F)cc2)CCN(C(=O)CNC(=O)OC(C)(C)C)CC1` [[(1-{2-[(tert-butoxy)carbonylamino]acetyl}-4-{N-[(3-fluoro-2-methylphenyl)methyl]carbamoyl}(4-piperidyl))methoxy]-N-[4-(trifluoromethyl)phenyl]carboxamide], 3180 nM.

Take `CCc1ccc(NC(=O)OCC2(C(=O)NCc3cccc(F)c3)CCN(C(=O)CNC(=O)OC(C)(C)C)CC2)cc1` [[(1-{2-[(tert-butoxy)carbonylamino]acetyl}-4-{N-[(3-fluorophenyl)methyl]carbamoyl}(4-piperidyl))methoxy]-N-(4-ethylphenyl)carboxamide]: the IC50 was 8240 nM. In the case of `CCc1ccc(NC(=O)OCC2(C(=O)NCc3ccc(Cl)cc3)CCN(C(=O)CNC(=O)OC(C)(C)C)CC2)cc1` [[(1-{2-[(tert-butoxy)carbonylamino]acetyl}-4-{N-[(4-chlorophenyl)methyl]carbamoyl}(4-piperidyl))methoxy]-N-(4-ethylphenyl)carboxamide] it was 14500 nM.
